Where two headings read alike, the source gives them in different places.
Columns and labels:
EAAT2 [1] = target: T1, EAAT2 (Homo sapiens, UniProt P43004); assay: [3H]D-aspartate uptake by EAAT2 transiently expressed in C17.2 cells; type: cell-based
T1 construct: expressed in transfected cells; host or cells: C17.2 cells, transient transfection with FuGENE6
Procedure: The excitatory amino acid transporter 2 (EAAT2) was transiently expressed in C17.2 cells using an AAV-based vector pAM-CAG-EAAT3-WPRE as described in the literature (Esslinger). Cells between passages 10-20 were seeded at 5×10^4 cells/well in 12 well plates and grown in complete DMEM supplemented with 10% fetal bovine serum, 1 mM sodium pyruvate, 0.1 mM nonessential amino acids solution. At 24 hours after plating, cells were transfected using FuGENE6 Transfection Reagent (Roche, Indianapolis, Ind.) in a ratio of 4 μL of FuGENE6 to 3 μg of purified plasmid DNA in accordance with manufacturers instructions. The cells were used in the transport assays 24 hours following transfection as described by Esslinger. Briefly, transfected C17.2 cells were grown in DMEM containing 10% FCS in a humid atmosphere of 5% CO2. Near-confluent cells (plated at 5×10^4 cells/well) were rinsed with a physiological buffer (138 mM NaCl, 11 mM D-glucose, 5.3 mM KCl, 0.4 mM KH2PO4, 0.3 mM Na2HPO4, 1.1 mM CaCl2, 0.7 mM MgSO4, 10 mM HEPES, pH 7.4) and allowed to pre-incubate at 37° C. for 5 minutes.
Three types of binding experiments were performed: a) single concentrations of compounds 1 or 6 were added simultaneously to the cell assay with 1 μM ^3H-D-aspartate, b) six or more concentrations of compound 6 were added simultaneously to the cell assay with 1 μM ^3H-D-aspartate; and c) six or more concentrations of compound 6 were pre-incubated with cells for 25 minutes, after which 1 μM ^3H-D-aspartate was added to the cell to initiate the assay. […] The cells were dissolved in 0.4 N NaOH for 24 hours and analyzed for radioactivity by liquid scintillation counting and protein by the BCA (Pierce) method. For each type of uptake assay experiment, they were conducted with at least 2 cell-containing tissue culture wells, with duplicate samples from each well analyzed for radioactivity. […] Initial studies confirmed that uptake quantified in this manner was linear with time and protein levels and also that uptake in un-transfected C17.2 cells was indistinguishable from background. […]

[2] = system: panel of central nervous system protein binding sites defined in FIG. 8; assay: competitive radioligand binding panel of central nervous system protein binding sites (FIG. 8); set-up: key: No Activity: no greater than or equal to 50% inhibition of binding; settings: 1 micromole assay concentration, duplicate
Procedure: In separate in vitro competitive pharmacological assays performed in duplicate, compounds 1 and 6 at 1 micromole concentrations were evaluated against the panel of central nervous system protein binding sites that are defined in FIG. 8. As noted in FIG. 8, the assays utilized specific established radioligands for the respective competition binding assays, and respective assay ligand standards that afforded respective pharmacological inhibition binding curves of half maximal inhibitory concentration (IC50) values. […] In other words, the concentrations of compounds 1 and 6 that would be required to inhibit the FIG. 8 radioligand bindings at their respective protein sites would have to be greater than 1 micromole concentration.

[3] = brain penetration and metabolism in live mice, LC/MS-MS of compound 6 in brain and plasma; type: in vivo, C57BL/6 mice; settings: for levels of compound 6 (hydrolyzed compound 1) per gram brain tissue: mouse, 10 mg/Kg tail vein injection, all time points 1-90 min, ester vs acid administered
Procedure: A series of separate experiments were performed with compounds 1 or 6 in groups of C57BL/6 mice (6-8 weeks old; Charles River, Wilmington, Mass.) as a function of dose and time, where concentrations of compound 6 in brain and plasma (nanogram of compound 6/g of brain tissue or blood) were measured by liquid chromatography/mass spectrometry (LC/MS-MS) detection by literature methods (Chernet et al., Life Sci. 78:340-346 (2005)). In general, doses of compounds 1 and 6 were prepared at 1, 5 or 10 mg/Kg in a homogenous solution composed of 3% dimethyl sulfoxide and 97% […] pH 7.4. Doses (0.25 mL volume) were administered by tail vein injection to groups (n≧3) of mice. Mice were sacrificed at 1, 3 10, 30, 60, 90 and 100 minutes post-injection. For some groups of mice, brains were removed, weighed, homogenized (polytron, in SDS and water) extracted with acetonitrile and then centrifuged where the acetonitrile supernatant was collected. For other groups of mice, blood was collected ([…]), weighed, and then the samples were centrifuged where the supernatant plasma was collected and extracted with acetonitrile with and without 0.1% formic acid. To validate the extraction methods, other control (non-dosed) mice brains and plasma samples were spiked with various amounts (5-25,000 ng) of compound 6 and were processed in a similar fashion and then analyzed as described below. Respective acetonitrile extracts were diluted with methanol and 20 μL portions were then subjected to analytical reverse phase (C-18 analytical column, isocratic acetonitrile/water solvent) high performance liquid chromatography (HPLC), where the HPLC fractions were quantified using a mass spectrometer set to selectively monitor the mass-to-charge ratio of singly protonated compound 6 (C17H16FN2O3, exact mass: 315.11). In other analyses, a standard curve of compound 6 was constructed (5-25,000 nanogram mass range) and analyzed similarly. Quantities (nanograms, ng) of compound 6 from the dosed treated mouse brain and plasma samples were determined by correlation to the quantitative control spike method of detection (above) and also confirmed by interpolations against the compound 6 standard curve. Data was imported into Microsoft Excel and plotted as nanogram (ng) of detected hydrolyzed compound 1 (that is, compound 6/gram (g) brain tissue or plasma versus time (minutes). The data from the mouse experiments are shown in FIGS. 4 and 5.
Shown in FIG. 4 are the results from 10 mg/Kg administration of the ester compound 1 (shown as black bars) or the acid compound 6 (shown as grey bars) relative to the amounts of hydrolyzed compound 1 (that is, compound 6) per gram brain tissue at time points 1, 3, 10, 60 and 90 minutes post-injection. […]

EAAT2 [4] = target: T2, EAAT2 (Rattus norvegicus, UniProt P31596); assay: tracer PET brain imaging and quantitative EAAT2 detection in rat; type: in vivo, rat (Sprague-Dawley); settings: 5 mg/Kg dose 10 minutes before tracer 2, all CNS ROIs, all times post-injection
T2 construct: from tissue; host or cells: live male Sprague-Dawley rat brain and spinal cord (in vivo PET)
Procedure: As an example of the tracer compound of the invention, rodent (rat) quantitative in vivo PET imaging trials are presented employing the tracer compound 2 of Example VI. The in vivo PET imaging was performed in parallel with magnetic resonance (MR) and computed axial tomography (CAT, CT) imaging methods, in which the latter two imaging methods afforded anatomical tissue information for co-registration to the acquired tracer quantitative PET data. […] Two rodent imaging trials (A-B) were performed employing two age-matched male Sprague-Dawley subjects. The age of the subjects were nearly identical to those described in the most recent rat (Sprague-Dawley, amongst others) stereotaxic brain atlas (Paxinos et al., “[…],” Academic Press: Burlington, Mass. (2007))
providing high confidence levels for identification and definition of explicit brain cerebral fine tissue structures as regions of interest (ROIs) for quantitative analysis, and as a function of three-dimensional (3D) co-registration of cerebral soft tissue identification by MR scan analysis and landmark anatomical features from CAT data.
The PET data were acquired with a Siemens Inveon microPET scanner (ca. 1.5 mm spatial resolution). Rodent subject tail vein tracer 2 injection volumes (Table 1) used the tracer 2 dose formulation described in Example VI. […]

T1 sequence (P43004 whole entry): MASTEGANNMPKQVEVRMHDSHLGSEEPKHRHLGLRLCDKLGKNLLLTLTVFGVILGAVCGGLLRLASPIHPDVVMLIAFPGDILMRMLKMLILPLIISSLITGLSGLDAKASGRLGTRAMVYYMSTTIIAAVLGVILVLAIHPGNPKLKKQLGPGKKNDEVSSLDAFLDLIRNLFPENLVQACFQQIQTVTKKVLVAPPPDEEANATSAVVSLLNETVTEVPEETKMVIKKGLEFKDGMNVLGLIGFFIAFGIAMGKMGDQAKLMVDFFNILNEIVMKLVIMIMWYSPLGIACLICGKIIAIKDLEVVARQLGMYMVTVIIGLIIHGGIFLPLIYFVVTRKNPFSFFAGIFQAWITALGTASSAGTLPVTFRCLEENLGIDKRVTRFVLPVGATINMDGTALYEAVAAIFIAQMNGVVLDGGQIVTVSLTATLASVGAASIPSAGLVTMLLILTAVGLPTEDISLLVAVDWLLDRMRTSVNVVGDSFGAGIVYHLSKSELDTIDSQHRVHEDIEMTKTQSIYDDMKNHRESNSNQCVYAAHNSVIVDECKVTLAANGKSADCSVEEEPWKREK
T2 sequence (P31596 whole entry): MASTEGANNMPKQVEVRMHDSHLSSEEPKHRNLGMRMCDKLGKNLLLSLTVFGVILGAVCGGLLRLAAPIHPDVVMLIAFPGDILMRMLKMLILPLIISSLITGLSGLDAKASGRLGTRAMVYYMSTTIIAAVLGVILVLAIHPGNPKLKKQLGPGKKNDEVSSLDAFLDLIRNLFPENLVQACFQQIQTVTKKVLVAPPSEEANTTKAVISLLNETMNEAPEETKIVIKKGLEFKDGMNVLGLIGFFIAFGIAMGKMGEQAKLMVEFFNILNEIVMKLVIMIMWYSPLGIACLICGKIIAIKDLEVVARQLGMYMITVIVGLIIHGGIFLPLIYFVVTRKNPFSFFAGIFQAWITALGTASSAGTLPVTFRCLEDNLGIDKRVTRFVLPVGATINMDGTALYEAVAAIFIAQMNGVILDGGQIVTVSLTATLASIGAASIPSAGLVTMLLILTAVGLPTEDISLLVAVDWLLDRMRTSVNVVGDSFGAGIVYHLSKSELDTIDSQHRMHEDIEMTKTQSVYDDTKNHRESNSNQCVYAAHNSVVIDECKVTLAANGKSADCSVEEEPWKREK

Row | Structure (SMILES) | inhibition of 1 μM [3H]D-aspartate uptake by EAAT2 (EAAT2 [1]) | inhibition of binding of FIG. 8 radioligands at their protein binding sites [2] | levels of compound 6 (hydrolyzed compound 1) per gram brain tissue [3] | IC50 (EAAT2 [1]; IC50, EAAT2 interaction, first experimental in vitro conditions (single concentrations, simultaneous addition)) | inhibition of 1 μM [3H]D-aspartate uptake by EAAT2 (EAAT2 [1]; concentrations up to 10 μM, added simultaneously with 3H-D-aspartate, 5 min) | amount of compound 6 detected in mouse brain, 5 mg/Kg versus 1 mg/Kg ([3]; mouse brain, 3, 10 and 100 minutes post-injection) | amount of compound 6 detected in plasma, 5 mg/Kg versus 1 mg/Kg ([3]; mouse plasma, 3 and 10 minutes post-injection) | reduction of tissue SUV signals of tracer 2 by pre-administration (challenge) (EAAT2 [4])
1 | N[C@@H](CC(=O)Nc1ccc2c(c1)Cc1cc(F)ccc1-2)C(=O)O [compound 6, (S)-2-Amino-4-(7-fluoro-9H-fluoren-2-ylamino)-4-oxo-butanoic acid] | almost completely inhibited all uptake | No Activity | lower levels |  |  |  |  | 
2 | COC(=O)[C@@H](N)CC(=O)Nc1ccc2c(c1)Cc1cc(F)ccc1-2 [compound 1, (S)-Methyl 2-amino-4-(7-fluoro-9H-fluoren-2-ylamino)-4-oxobutanoate] |  | No Activity | higher levels | > 10 µM | little or no inhibition | dose amount dependence | dose amount dependence | 2-3 fold
